Broadly, the EC50 is the concentration that produces a half-maximal response. A word on the Emax: it is the size of the effect at its maximum, as opposed to the concentration needed.

The assay concerns the target T1, human F508del CFTR (Homo sapiens, UniProt P13569, DEL508-508).
T1 construct: expressed in transfected cells
As to the kind of experiment: CFTR-YFP Assay, CFTR Corrector Protocol (YFP flux assay). As to conditions: for Emax: normalized to the positive control, read-out: EMAX (% Efficacy, EMAX normalized to the positive control). The class given is cell-based.

A value given as a limit tells only on which side of the number the result lay.

T1 sequence (P13569 with tags, fused parts or gaps DEL508-508): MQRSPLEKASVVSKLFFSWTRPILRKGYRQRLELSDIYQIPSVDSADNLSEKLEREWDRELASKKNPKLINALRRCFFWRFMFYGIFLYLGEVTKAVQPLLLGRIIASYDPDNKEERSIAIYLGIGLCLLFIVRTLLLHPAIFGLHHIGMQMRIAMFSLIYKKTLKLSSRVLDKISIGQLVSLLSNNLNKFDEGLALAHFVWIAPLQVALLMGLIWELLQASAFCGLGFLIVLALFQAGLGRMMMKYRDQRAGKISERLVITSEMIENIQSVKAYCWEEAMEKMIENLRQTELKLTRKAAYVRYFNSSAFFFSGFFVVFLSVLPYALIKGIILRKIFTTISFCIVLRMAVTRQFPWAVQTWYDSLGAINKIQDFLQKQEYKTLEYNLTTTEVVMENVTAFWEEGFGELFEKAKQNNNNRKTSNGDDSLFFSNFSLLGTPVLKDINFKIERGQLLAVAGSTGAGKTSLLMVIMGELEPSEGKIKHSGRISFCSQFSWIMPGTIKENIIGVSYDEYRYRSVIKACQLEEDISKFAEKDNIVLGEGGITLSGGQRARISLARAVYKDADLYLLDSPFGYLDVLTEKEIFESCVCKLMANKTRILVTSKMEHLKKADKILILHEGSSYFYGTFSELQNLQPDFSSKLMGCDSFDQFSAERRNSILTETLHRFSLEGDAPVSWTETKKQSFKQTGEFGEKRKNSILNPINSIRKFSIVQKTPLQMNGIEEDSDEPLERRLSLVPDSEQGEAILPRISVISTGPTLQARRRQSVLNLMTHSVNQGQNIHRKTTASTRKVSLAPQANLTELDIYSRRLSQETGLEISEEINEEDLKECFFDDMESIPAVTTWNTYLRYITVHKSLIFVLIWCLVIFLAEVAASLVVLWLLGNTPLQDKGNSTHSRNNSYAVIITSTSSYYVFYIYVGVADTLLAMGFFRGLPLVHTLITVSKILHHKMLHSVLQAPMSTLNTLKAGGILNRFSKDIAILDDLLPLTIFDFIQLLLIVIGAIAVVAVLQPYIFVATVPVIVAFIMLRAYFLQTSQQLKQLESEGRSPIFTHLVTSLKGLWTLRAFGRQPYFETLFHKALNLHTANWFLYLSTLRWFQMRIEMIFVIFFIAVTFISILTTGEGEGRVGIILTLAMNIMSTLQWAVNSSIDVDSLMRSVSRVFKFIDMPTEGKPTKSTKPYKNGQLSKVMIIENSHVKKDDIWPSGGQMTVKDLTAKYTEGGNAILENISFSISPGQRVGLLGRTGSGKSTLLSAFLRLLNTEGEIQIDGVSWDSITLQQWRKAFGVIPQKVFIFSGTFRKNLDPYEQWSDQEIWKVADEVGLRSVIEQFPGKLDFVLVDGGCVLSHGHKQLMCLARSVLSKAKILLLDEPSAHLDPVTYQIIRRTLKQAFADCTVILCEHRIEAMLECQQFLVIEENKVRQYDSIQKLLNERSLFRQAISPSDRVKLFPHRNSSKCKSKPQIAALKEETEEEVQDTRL

Regarding `COc1ccc(S(=O)(=O)N2CCC(N(C(=O)c3ccccc3Cl)c3cccc(C)n3)CC2)cc1Cl` [Example 206], the EC50 was in the range of 10 to 20 µM and the Emax was 10 to 30%.

As for `CCc1ccc(N(C(=O)c2ccccc2Cl)C2CCN(S(=O)(=O)c3ccc(CC)cc3)CC2)cc1` [Example 208], the EC50 was 10 to 20 µM and the maximal effect (Emax) lay within 30 to 80%.

As to `CCc1ccc(S(=O)(=O)N2CCC(N(C(=O)c3ccccc3Cl)c3ccc4c(c3)OC(F)(F)O4)CC2)cc1` [Example 209], the EC50 was less than 10 µM and the Emax is 30 to 80%.

Take `CCc1ccc(S(=O)(=O)N2CCC(N(C(=O)c3ccccc3Cl)c3ccccc3)CC2)cc1` [Example 210]: the EC50 was in the range of 10 to 20 µM and the Emax lay in the range of 30 to 80%.

With `CCc1ccc(S(=O)(=O)N2CCC(N(C(=S)c3ccccc3Cl)c3ccc(OC)cc3)CC2)cc1` [Example 211], the EC50 was in the range of 10 to 20 µM and the Emax is 30 to 80%.

`CCc1ccc(S(=O)(=O)N2CCC(N(C(=S)c3ccccc3Cl)c3ccc4c(c3)OC(F)(F)O4)CC2)cc1` [Example 212]: the EC50 fell in the range of 10 to 20 µM and the Emax lay in the range of 30 to 80%.

In the case of `CCc1ccc(S(=O)(=O)N2CCC(N(C(=S)c3ccccc3Cl)c3ccccc3)CC2)cc1` [Example 213], the EC50 lay within 10 to 20 µM and the Emax fell in the range of 10 to 30%.

In the case of `CCc1ccc(S(=O)(=O)N2CCC(N(C(=O)c3ccccc3Cl)c3ccc(Br)cc3)CC2)cc1` [Example 214], the EC50 was less than 10 µM and the Emax was 10 to 30%.

On to `CCc1ccc(S(=O)(=O)N2CCC(N(C(=O)c3ccccc3Cl)c3ccc(I)cc3)CC2)cc1` [Example 216], for which the EC50 was less than 10 µM and the Emax is 10 to 30%.

Regarding `CCc1ccc(S(=O)(=O)N2CCC(N(C(=O)c3ccccc3Cl)c3cccc(Cl)c3)CC2)cc1` [Example 217], the EC50 is less than 10 µM and the Emax lay within 10 to 30%.

With `CCc1ccc(S(=O)(=O)N2CCC(N(c3ccc(OC)cn3)S(=O)(=O)c3ccccc3Cl)CC2)cc1` [Example 218], the EC50 is less than 10 µM and the Emax was 10 to 30%.

`COc1ccc(N(C2CCN(S(=O)(=O)c3ccc4c(c3)OC(F)(F)O4)CC2)S(=O)(=O)c2ccccc2Cl)nc1` [Example 219]: the EC50 is less than 10 µM and the Emax lay within 10 to 30%.

As to `Cc1cccc(N(C2CCN(S(=O)(=O)c3ccc4nc(C)oc4c3)CC2)S(=O)(=O)c2ccccc2Cl)n1` [Example 220, 2-Chloro-N-(1-((2-methylbenzo[d]oxazol-6-yl)sulfonyl)piperidin-4-yl)-N-(6-methylpyridin-2-yl)benzenesulfonamide], the EC50 was less than 10 µM and the Emax is 30 to 80%.

Take `CCc1ccc(S(=O)(=O)N2CCC(N(c3cccc(OC)n3)S(=O)(=O)c3ccccc3Cl)CC2)cc1` [Example 222, 2-Chloro-N-(1-((4-ethylphenyl)sulfonyl)piperidin-4-yl)-N-(6-methoxypyridin-2-yl)benzenesulfonamide]: the EC50 is less than 10 µM and the Emax fell in the range of 10 to 30%.

As for `Cc1ccc(N(C2CCN(S(=O)(=O)c3ccc4nc(C)oc4c3)CC2)S(=O)(=O)c2ccccc2Cl)nc1` [Example 223], the EC50 fell in the range of 10 to 20 µM and the Emax was 10 to 30%.

Take `CCc1ccc(S(=O)(=O)N2CCC(N(c3ccccn3)S(=O)(=O)c3ccccc3C)CC2)cc1` [Example 225]: the EC50 was less than 10 µM and the Emax is 10 to 30%.

Turning to `CCc1ccc(S(=O)(=O)N2CCC(N(c3ccccn3)S(=O)(=O)c3cccc(C)c3)CC2)cc1` [Example 226], the EC50 was less than 10 µM and the Emax was in the range of 10 to 30%.

For the molecule `CCc1ccc(S(=O)(=O)N2CCC(N(c3ccc(C)cn3)S(=O)(=O)c3ccccc3Cl)CC2)cc1` [Example 227], the EC50 was less than 10 µM and the Emax lay in the range of 10 to 30%.

On to `COc1ccc(N(C2CCN(S(=O)(=O)c3ccc4nc(C)oc4c3)CC2)S(=O)(=O)c2ccccc2Cl)nc1` [Example 228], for which the EC50 was in the range of 10 to 20 µM and the Emax was 10 to 30%.

`CCc1ccc(S(=O)(=O)N2CCC(N(c3ccccn3)S(=O)(=O)c3ccc(C)cc3)CC2)cc1` [Example 229]: the EC50 was less than 10 µM and the Emax lay within 10 to 30%.

As for `CCc1ccc(S(=O)(=O)N2CCC(N(c3ccc(Cl)cn3)S(=O)(=O)c3ccccc3Cl)CC2)cc1` [Example 230], the EC50 was less than 10 µM and the Emax lay within 30 to 80%.

Take `CCc1ccc(S(=O)(=O)N2CCC(N(c3nccs3)S(=O)(=O)c3ccccc3Cl)CC2)cc1` [Example 231]: the EC50 is less than 10 µM and the Emax is 30 to 80%.

Turning to `CCc1ccc(S(=O)(=O)N2CCC(N(c3cccc(Cl)n3)S(=O)(=O)c3ccccc3Cl)CC2)cc1` [Example 232], the EC50 was less than 10 µM and the Emax lay in the range of 10 to 30%.

On to `CCc1ccc(S(=O)(=O)N2CCC(N(c3cc(Cl)ccn3)S(=O)(=O)c3ccccc3Cl)CC2)cc1` [Example 233], for which the EC50 is less than 10 µM and the Emax lay within 30 to 80%.

For the molecule `CCc1ccc(S(=O)(=O)N2CCC(N(c3ccccn3)S(=O)(=O)c3cccc(Cl)c3)CC2)cc1` [Example 234], the EC50 is less than 10 µM and the Emax lay within 30 to 80%.

For `CCc1ccc(S(=O)(=O)N2CCC(N(c3ccccn3)S(=O)(=O)c3ccc(Cl)cc3)CC2)cc1` [Example 235], the EC50 is less than 10 µM and the Emax was in the range of 30 to 80%.

Turning to `CCc1ccc(S(=O)(=O)N2CCC(N(c3ccc(OC)cc3)S(=O)(=O)c3ccccc3Cl)CC2)cc1` [Example 236], the EC50 was less than 10 µM and the Emax was 10 to 30%.

For the molecule `CCc1ccc(S(=O)(=O)N2CCC(N(c3ccc(C)cc3)S(=O)(=O)c3ccccc3Cl)CC2)cc1` [Example 237], the EC50 was less than 10 µM and the Emax fell in the range of 10 to 30%.

Turning to `CCc1ccc(S(=O)(=O)N2CCC(N(c3cccc(C)c3)S(=O)(=O)c3ccccc3Cl)CC2)cc1` [Example 238], the EC50 was less than 10 µM and the Emax was in the range of 30 to 80%.

As for `CCc1ccc(S(=O)(=O)N2CCC(N(c3ccccc3OC)S(=O)(=O)c3ccccc3Cl)CC2)cc1` [Example 239], the EC50 was less than 10 µM and the maximum response (Emax) fell in the range of 10 to 30%.

As to `CCc1ccc(S(=O)(=O)N2CCC(N(c3cc(C)ccn3)S(=O)(=O)c3ccccc3Cl)CC2)cc1` [Example 240], the EC50 is less than 10 µM and the Emax lay in the range of 10 to 30%.

`CCc1ccc(S(=O)(=O)N2CCC(N(c3ccc(F)cc3)S(=O)(=O)c3ccccc3Cl)CC2)cc1` [Example 241]: the EC50 is less than 10 µM and the Emax was in the range of 10 to 30%.

In the case of `CCc1ccc(S(=O)(=O)N2CCC(N(c3ncccn3)S(=O)(=O)c3ccccc3Cl)CC2)cc1` [Example 242], the EC50 is less than 10 µM and the Emax was 10 to 30%.

On to `CCc1ccc(S(=O)(=O)N2CCC(N(c3ccc(C(F)(F)F)cn3)S(=O)(=O)c3ccccc3Cl)CC2)cc1` [Example 243], for which the EC50 is 10 to 20 µM and the Emax lay in the range of 10 to 30%.

Consider `CCc1ccc(S(=O)(=O)N2CCC(N(c3cc(OC)ccn3)S(=O)(=O)c3ccccc3Cl)CC2)cc1` [Example 244], for which the EC50 fell in the range of 10 to 20 µM and the Emax fell in the range of 30 to 80%.

As to `CCc1ccc(S(=O)(=O)N2CCC(N(c3cnc(OC)cn3)S(=O)(=O)c3ccccc3Cl)CC2)cc1` [Example 245], the EC50 was less than 10 µM and the Emax fell in the range of 30 to 80%.

With `CCc1ccc(S(=O)(=O)N2CCC(N(c3cccc(OC)c3)S(=O)(=O)c3ccccc3Cl)CC2)cc1` [Example 246], the EC50 fell in the range of 10 to 20 µM and the Emax is 30 to 80%.

As to `CCc1ccc(S(=O)(=O)N2CCC(N(c3ncccc3OC)S(=O)(=O)c3ccccc3Cl)CC2)cc1` [Example 247], the EC50 was less than 10 µM and the Emax lay within 30 to 80%.

As to `CCc1ccc(S(=O)(=O)N2CCC(N(c3cnccn3)S(=O)(=O)c3ccccc3Cl)CC2)cc1` [Example 248], the EC50 was less than 10 µM and the Emax lay within 30 to 80%.

In the case of `CCc1ccc(S(=O)(=O)N2CCC(N(c3ccncn3)S(=O)(=O)c3ccccc3Cl)CC2)cc1` [Example 249], the EC50 was less than 10 µM and the Emax was 30 to 80%.
